Common to all, as to type: cell-based
Data set [1] has as its system Acinetobacter baumannii ATCC 19606. Description: Minimum Inhibitory Concentration (MIC) in LB media. The settings on record: Acinetobacter baumannii, ATCC19606. The source says: (§1) The compounds of Formula Ia and Formula Ib are of interest due to their potent antibacterial effects. The ability of the compounds disclosed herein to achieve an antibacterial effect may be evaluated with regard to their ability to inhibit the growth of bacterial species like Escherichia coli ATCC 25922, Staphylococcus aureus ATCC 29213, Klebsiella pneumoniae ATCC 13883, Acinetobacter baumannii ATCC 19606, Pseudomonas aeruginosa ATCC 27853 and Enterococcus faecalis ATCC 29212 using an assay based on the following Minimum Inhibitory Concentration (MIC) protocol:
(§2) The test bacteria were grown in Luria Bertani Broth (HIMEDIA M1245), 25 g of the powder was dissolved in 1000 ml distilled water and sterilized by autoclaving at 15 lbs pressure (121° C.) for 20 minutes. The medium sterility was checked by incubating at 37° C. for a period of 48 h. Bacterial cultures that were stored as glycerol stocks at −80° C. were subcultured on LB agar plates to obtain isolated colonies. A single colony of each strain was cultured in LB broth. The cultures were incubated at 37° C., 200 rpm till they reached an optical density (OD at 600 nm) of 0.8 to 1. This log phase culture was diluted in LB broth to a cell number of 5-8*10^5 CFU/mL to be used as inoculum for MIC experiments. Test compounds were dissolved in dimethyl sulfoxide (DMSO) to a stock concentration of 4 mg/ml. A two-fold dilution series of this DMSO stock was prepared in a 96 well V bottom microtitre plate from rows A to H. A 3 μL volume of these dilutions are transferred to a 96-well flat bottom microtitre assay plate. Controls to monitor the effects of DMSO and media sterility were included. Each well was inoculated with 150 μL of the above diluted culture. The plates were incubated at 37° C. overnight in a humidified incubator. The following morning, the plates were read using a Spectrophotometer at 600 nm wavelength. […] The antibacterial activity (MIC) determined against representative gram-positive (S. aureus, E. faecalis) and gram-negative (E. coli, Aeruginosa, K. pneumoniae, and A. baumannii) pathogen are reported Table 1.

The subject of data set [2] is Enterococcus faecalis ATCC 29212. Kind of data set: Minimum Inhibitory Concentration (MIC) in LB media. Conditions: Enterococcus faecalis, ATCC29212, read-out: Minimum Inhibitory Concentration E. faecalis ATCC 29212.
Source text: as §1, §2

Data set [3] has as its system Escherichia coli ATCC 25922. Description: Minimum Inhibitory Concentration (MIC) in LB media. Conditions: Escherichia coli, ATCC25922, read-out: Minimum Inhibitory Concentration E. coli ATCC 25922.
Source text: as §1, §2

Data set [4] has as its system Klebsiella pneumoniae ATCC 13883. Description: Minimum Inhibitory Concentration (MIC) in LB media. The settings on record: Klebsiella pneumoniae, ATCC13883, read-out: Minimum Inhibitory Concentration K. pneumoniae ATCC 13883.
Source text: as §1, §2

Data set [5] has as its system Pseudomonas aeruginosa ATCC 27853. Kind of data set: Minimum Inhibitory Concentration (MIC) in LB media. Conditions: Pseudomonas aeruginosa, ATCC27853.
Source text: as §1, §2

The subject of data set [6] is Staphylococcus aureus ATCC 29213. Description: Minimum Inhibitory Concentration (MIC) in LB media. The settings on record: Staphylococcus aureus, ATCC29213, read-out: Minimum Inhibitory Concentration S. aureus ATCC 29213.
Source text: as §1, §2

In the next data set the test system is Acinetobacter baumannii. Description: MIC90 determination, clinical strains (CLSI). The settings on record: Acinetobacter baumannii, N=38, read-out: MIC 90 Acinetobacter baumannii.
The next data set concerns Citrobacter freundii. Description: MIC90 determination, clinical strains (CLSI). The settings on record: Citrobacter freundii, N=19, read-out: MIC 90 Citrobacter freundii.
The test system of another data set is Enterobacter cloacae. Description: MIC90 determination, clinical strains (CLSI). Conditions: Enterobacter cloacae, N=26, read-out: MIC 90 Enterobacter cloacae.
A further data set relates to Escherichia coli. Kind of data set: MIC90 determination, clinical strains (CLSI). The settings on record: Escherichia coli, N=38, read-out: MIC 90 Escherichia coli.
For data set [7], the system named is Klebsiella aerogenes, K. oxytoca. Description: MIC90 determination, clinical strains (CLSI). Conditions: N=17, read-out: MIC 90 Klebsiella aerogenes, K. oxytoca.
A further data set concerns Klebsiella pneumoniae. Kind of data set: MIC90 determination, clinical strains (CLSI). Conditions: Klebsiella pneumoniae, N=86, read-out: MIC 90 Klebsiella pneumoniae.
A further data set concerns Morganella morganii. Kind of data set: MIC90 determination, clinical strains (CLSI). The settings on record: Morganella morganii, N=11, read-out: MIC 90 Morganella morganii.
In another data set the test system is Proteus mirabilis. Kind of data set: MIC90 determination, clinical strains (CLSI). The settings on record: Proteus mirabilis, N=12, read-out: MIC 90 Proteus mirabilis.
The subject of data set [8] is Providencia rettgeri, P. stuartii. Kind of data set: MIC90 determination, clinical strains (CLSI). The settings on record: N=12, read-out: MIC 90 Providencia rettgeri, P. stuartii.
For the next data set, the system named is Pseudomonas aeruginosa. Kind of data set: MIC90 determination, clinical strains (CLSI). Conditions: Pseudomonas aeruginosa, N=34, read-out: MIC 90 Pseudomonas aeruginosa.
The test system of a further data set is Serratia marcescens. Description: MIC90 determination, clinical strains (CLSI). Conditions: Serratia marcescens, N=15, read-out: MIC 90 Serratia marcescens.
In the next data set the test system is CHO-K1 cells. Kind of data set: In-vitro micronucleus assay. The settings on record: for % (in-vitro micronucleus assay) / In vitro micronucleus forming concentration: Chinese hamster. How it is done:
Genetic toxicology studies were performed on the compounds of the present disclosure to assess their ability to cause DNA damage. The in-vitro micronucleus assay measured the concentration (μM) of the compound at which micronuclei formation occurred. A micronuclei formation at lower concentration indicates more genetic damage or genotoxicity.
Micronucleus formation is a hallmark of genotoxicity, and the micronucleus assay is an important component of genotoxicity screening. Micronuclei are chromatin-containing bodies that represent fragments or even whole chromosomes that were not incorporated into a daughter cell nucleus at mitosis. The purpose of the assay is to detect agents that induce chromosome damage leading to the induction of micronuclei in interphase cells. The in vitro micronucleus assay was conducted in CHO-K1 cells according to the procedure described by Diaz, D et al [Mutat Res. 630(1-2):1-13. […] The formation of the micronucleus is identified by image-based high content analysis from binucleated cells.

The next data set addresses hERG potassium channel (Homo sapiens (Human), UniProt Q12809). Kind of data set: hERG inhibition assay (Qpatch HTX automated electrophysiology). The settings on record: CHO cell line expressing hERG, whole-cell patch clamp. Here is the method:
Electrophysiological recordings were made from a Chinese Hamster Ovary cell line stably expressing the full-length hERG potassium channel. Single cell ionic currents were measured in whole-cell patch clamp configuration at room temperature (21-23° C.) using the Qpatch HTX platform (Sophion). Intracellular solution contained (mM): 120 KF, 20 KCl, 10 EGTA, 10 HEPES and was buffered to pH 7.3. […] Cells were clamped at a holding potential of −80 mV. Cells were stepped to +20 mV for 2 s then −40 mV for 3 s before returning to the holding potential. […] Compounds were then incubated for 2 minutes prior to a second measurement of ion channel current using an identical pulse train.
Background: hERG is a cardiac potassium channel; its block is linked to QT prolongation.

Each structure is given as a SMILES string. ≈ marks a conversion by molar mass, not a printed value.

hERG potassium channel, sequence (Q12809 whole entry): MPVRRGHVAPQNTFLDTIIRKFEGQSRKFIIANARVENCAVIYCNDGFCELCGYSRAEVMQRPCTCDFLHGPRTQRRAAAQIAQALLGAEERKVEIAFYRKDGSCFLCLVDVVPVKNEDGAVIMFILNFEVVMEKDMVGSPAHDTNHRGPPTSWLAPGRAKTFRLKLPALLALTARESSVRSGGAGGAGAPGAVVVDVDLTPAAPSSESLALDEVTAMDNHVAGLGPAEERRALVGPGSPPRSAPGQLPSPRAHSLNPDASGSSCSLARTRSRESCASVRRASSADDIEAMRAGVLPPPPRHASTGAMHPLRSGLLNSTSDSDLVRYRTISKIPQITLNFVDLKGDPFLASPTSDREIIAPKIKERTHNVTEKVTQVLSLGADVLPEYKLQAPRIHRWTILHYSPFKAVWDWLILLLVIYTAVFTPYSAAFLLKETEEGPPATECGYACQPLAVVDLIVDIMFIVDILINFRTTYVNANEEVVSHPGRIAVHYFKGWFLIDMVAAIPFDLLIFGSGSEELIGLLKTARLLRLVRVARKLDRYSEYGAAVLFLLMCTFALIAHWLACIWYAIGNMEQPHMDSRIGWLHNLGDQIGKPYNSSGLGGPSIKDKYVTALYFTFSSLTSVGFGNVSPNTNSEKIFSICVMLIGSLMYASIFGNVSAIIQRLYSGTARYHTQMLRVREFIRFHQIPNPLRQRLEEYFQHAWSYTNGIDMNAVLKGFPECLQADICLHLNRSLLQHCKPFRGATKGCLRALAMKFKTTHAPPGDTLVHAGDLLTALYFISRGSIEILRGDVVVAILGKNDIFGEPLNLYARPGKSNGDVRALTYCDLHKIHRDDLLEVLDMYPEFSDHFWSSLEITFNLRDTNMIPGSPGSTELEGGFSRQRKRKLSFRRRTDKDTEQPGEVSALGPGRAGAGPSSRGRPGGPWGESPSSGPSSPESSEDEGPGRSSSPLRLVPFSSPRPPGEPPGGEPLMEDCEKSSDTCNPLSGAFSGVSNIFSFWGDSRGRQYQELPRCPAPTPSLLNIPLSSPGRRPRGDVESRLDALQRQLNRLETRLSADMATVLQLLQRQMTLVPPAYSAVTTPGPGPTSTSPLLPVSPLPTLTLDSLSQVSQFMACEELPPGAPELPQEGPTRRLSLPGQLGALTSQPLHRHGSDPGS

The IC50 is the concentration at which inhibition is half-maximal. High values mean lower potency, low ones higher potency. For the compound `Cn1c(=O)cnc2ccc(OCCNC[C@H]3CN(c4cnc5c(n4)NC(=O)CS5)C(=O)O3)nc21` [Compound 1, (S)-5-(((2-((4-Methyl-3-oxo-3,4-dihydropyrido[2,3-b]pyrazin-6-yl)oxy)ethyl)amino)methyl)-3-(3-oxo-3,4-dihydro-2H-pyrazino[2,3-b][1,4]thiazin-6-yl)oxazolidin-2-one, reference compound], the MIC was 0.03 µg/mL (≈ 0.0619 µM) in data set [1]; 0.1 µg/mL (≈ 0.206 µM) in [2]; 0.03 µg/mL (≈ 0.0619 µM) in data set [3]; 0.03 µg/mL (≈ 0.0619 µM) in [4]; 0.5 µg/mL (≈ 1.03 µM) in [5]; < 0.03 µg/mL in data set [6]. Further, the MIC90 came to 0.5 µg/mL (≈ 1.03 µM) in the data set with Acinetobacter baumannii; 2 µg/mL (≈ 4.13 µM) in the data set with Citrobacter freundii; 4 µg/mL (≈ 8.26 µM) with Enterobacter cloacae; 0.5 µg/mL (≈ 1.03 µM) in the data set with Escherichia coli; 2 µg/mL (≈ 4.13 µM) in data set [7]; 4 µg/mL (≈ 8.26 µM) in the data set with Klebsiella pneumoniae. The MIC90 turned out to be 1 µg/mL (≈ 2.06 µM) in the data set on Morganella morganii; 4 µg/mL (≈ 8.26 µM) in the data set with Proteus mirabilis; 2 µg/mL (≈ 4.13 µM) in data set [8]; 2 µg/mL (≈ 4.13 µM) with Pseudomonas aeruginosa; 8 µg/mL (≈ 16.5 µM) in the data set with Serratia marcescens. Also, in the data set with CHO-K1 cells, the “% (in-vitro micronucleus assay)” value is given as 1.58%. In the data set with CHO-K1 cells, the “In vitro micronucleus forming concentration” value was 32 µM. This compound yielded a 50% inhibitory concentration (IC50) against hERG potassium channel of 58 µM.
Regarding `Cn1c(=O)ccc2ncc(OCCNC[C@H]3CN(c4cnc5c(n4)NC(=O)CS5)C(=O)O3)nc21` [Compound 2, (S)-5-(((2-((5-Methyl-6-oxo-5,6-dihydropyrido[2,3-b]pyrazin-3-yl)oxy)ethyl)amino)methyl)-3-(3-oxo-3,4-dihydro-2H-pyrazino[2,3-b][1,4]thiazin-6-yl)oxazolidin-2-one, reference compound], the MIC was 0.03 µg/mL (≈ 0.0619 µM) in [1]; 0.03 µg/mL (≈ 0.0619 µM) in [2]; 0.03 µg/mL (≈ 0.0619 µM) in data set [3]; 0.03 µg/mL (≈ 0.0619 µM) in data set [4]; 0.5 µg/mL (≈ 1.03 µM) in [5]; < 0.03 µg/mL in [6]. In addition, the MIC90 in the data set with Acinetobacter baumannii was 2 µg/mL (≈ 4.13 µM); in the data set on Citrobacter freundii, 1 µg/mL (≈ 2.06 µM); in the data set on Enterobacter cloacae it was 8 µg/mL (≈ 16.5 µM); in the data set on Escherichia coli it was 1 µg/mL (≈ 2.06 µM); in [7], 2 µg/mL (≈ 4.13 µM); with Klebsiella pneumoniae, 4 µg/mL (≈ 8.26 µM). Besides, the MIC90 is 1 µg/mL (≈ 2.06 µM) with Morganella morganii; 4 µg/mL (≈ 8.26 µM) in the data set with Proteus mirabilis; 4 µg/mL (≈ 8.26 µM) in data set [8]; 4 µg/mL (≈ 8.26 µM) in the data set with Pseudomonas aeruginosa; 16 µg/mL (≈ 33 µM) in the data set with Serratia marcescens. For the same compound, the “% (in-vitro micronucleus assay)” value in the data set on CHO-K1 cells turned out to be 1.67%. For the same compound, the “In vitro micronucleus forming concentration” value with CHO-K1 cells is 8 µM. On hERG potassium channel, the IC50 is > 150 µM.
On to `Cn1c(=O)cnc2ccc(OCCNC[C@@H]3CN(c4cnc5c(n4)NC(=O)CS5)C(=O)O3)nc21` [Compound 3, (R)-5-(((2-((4-methyl-3-oxo-3,4-dihydropyrido[2,3-b]pyrazin-6-yl)oxy)ethyl)amino)methyl)-3-(3-oxo-3,4-dihydro-2H-pyrazino[2,3-b][1,4]thiazin-6-yl)oxazolidin-2-one], for which the MIC is 0.03 µg/mL (≈ 0.0619 µM) in [1]; 0.03 µg/mL (≈ 0.0619 µM) in data set [2]; 0.03 µg/mL (≈ 0.0619 µM) in data set [3]; 0.03 µg/mL (≈ 0.0619 µM) in data set [4]; 0.5 µg/mL (≈ 1.03 µM) in data set [5]; < 0.015 µg/mL in data set [6]. In addition, the MIC90 was determined as 0.5 µg/mL (≈ 1.03 µM) in the data set with Acinetobacter baumannii; 1 µg/mL (≈ 2.06 µM) in the data set with Citrobacter freundii; 8 µg/mL (≈ 16.5 µM) with Enterobacter cloacae; 0.5 µg/mL (≈ 1.03 µM) in the data set with Escherichia coli; 4 µg/mL (≈ 8.26 µM) in [7]; 4 µg/mL (≈ 8.26 µM) with Klebsiella pneumoniae. The MIC90 with Morganella morganii is 1 µg/mL (≈ 2.06 µM); in the data set on Proteus mirabilis it was 4 µg/mL (≈ 8.26 µM); in [8], 2 µg/mL (≈ 4.13 µM); with Pseudomonas aeruginosa it was 4 µg/mL (≈ 8.26 µM); with Serratia marcescens, 4 µg/mL (≈ 8.26 µM). For the same compound, the “genotoxicity risk (in words)” value in the data set on CHO-K1 cells is listed as “completely devoid of any genotoxicity risk”. In addition, the “micronucleus formation (in words)” value in the data set on CHO-K1 cells is on record as “did not induce micronucleus formation”. In addition, the “% (in-vitro micronucleus assay)” value in the data set with CHO-K1 cells came to 0.81%. Moreover, in the data set on CHO-K1 cells, the “In vitro micronucleus forming concentration” value is >500 µM.

(Values after patent US20250136618A1, “ANTIBIOTIC PYRAZINOTHIAZINE DERIVATIVES AND PROCESS OF PREPARATION THEREOF” (Bugworks Research India PVT Ltd, priority 2021, published 2025).)
